Experimental data as given in US11673860B2, “Crystalline siponimod fumaric acid and polymorphs thereof” (TEVA PHARMACEUTICALS INTERNATIONAL GMBH, priority 2018, dated 2023).

Assay: Stability of the solid state form under stress conditions (high temperature and relative humidity)
Type: physicochemical
Conditions: stressed conditions, e.g. high temperature and relative humidity; solid to solid phase / polymorph transformation
Excerpt: Pharmaceutical molecules may display solid to solid phase transformations and transformations between polymorphs; which may detected by exposure of the solid state form to stress conditions of e.g., high temperature and high relative humidity.

SMILES: CCc1cc(/C(C)=N/OCc2ccc(C3CCCCC3)c(C(F)(F)F)c2)ccc1CN1CC(C(=O)O)C1.CCc1cc(/C(C)=N/OCc2ccc(C3CCCCC3)c(C(F)(F)F)c2)ccc1CN1CC(C(=O)O)C1.O=C(O)/C=C/C(=O)O [crystalline Form 7 of Siponimod fumaric acid]
- thermodynamic and chemical stability of the solid state form: thermodynamically and chemical stable

SMILES: CCc1cc(/C(C)=N/OCc2ccc(C3CCCCC3)c(C(F)(F)F)c2)ccc1CN1CC(C(=O)O)C1.CCc1cc(/C(C)=N/OCc2ccc(C3CCCCC3)c(C(F)(F)F)c2)ccc1CN1CC(C(=O)O)C1.O=C(O)/C=C/C(=O)O [Crystalline Siponimod fumaric acid]
- thermodynamic and chemical stability of the solid state form: thermodynamically stable and steady under stressed conditions
